Laboratory results reported in ChEMBL document CHEMBL6153141, “Design, Synthesis, and Mechanism Study of Novel BMX Inhibitors Based on the Core of 1,3,5-Triazin-2-Amine for the Treatment of Gastric Carcinoma” (J Med Chem, 2025).
Active and inactive are the calls of the source. The calls are words filed in the database; no cut-off is given here.

Assays:
A549 = assay: cells; details: Homo sapiens, A549, 72 h
Description: Anticancer activity against human A549 cells assessed as inhibition of cell proliferation incubated for 72 hrs by MTT assay

HGC-27 [1] = assay: Induction of apoptosis in human HGC-27 cells assessed as increase in cleaved PARP level incubated for 48 hrs by Western blot analysis; assay type: functional, cell-based; details: dose 5-15 µM
MGC-803 [2] = assay: Induction of apoptosis in human MGC-803 cells assessed as increase in cleaved caspase 9 level incubated for 48 hrs by Western blot analysis; assay type: functional, cell-based; details: dose 10-20 µM
MGC-803 [3] = assay: Induction of apoptosis in LC3B knockout human MGC-803 cells assessed as increase in cleaved PARP level at 20 uM by Western blot analysis; assay type: functional, cell-based
PC-9 = assay: cells; details: Homo sapiens, PC-9, 72 h
Description: Anticancer activity against human PC-9 cells assessed as inhibition of cell proliferation incubated for 72 hrs by MTT assay

MGC-803 [4] = assay: Anticancer activity against human MGC-803 cells assessed as inhibition of cell proliferation incubated for 72 hrs by MTT assay; assay type: functional, cell-based; details: MGC-803, 72 h
MGC-803 [5] = assay: Antiproliferative activity against human MGC-803 cells assessed as inhibition of cell viability upto 50 uM by MTT assay; assay type: functional, cell-based; details: time 24-72 hrs
MGC-803 [6] = assay: Cell cycle arrest in human MGC-803 cells assessed as accumulation of cells at G1 phase at 10 to 20 uM incubated for 48 hrs by flow cytometric analysis; assay type: functional, cell-based; details: dose 10-20 µM
MDA-MB-231 = assay: Anticancer activity against human MDA-MB-231 cells assessed as inhibition of cell proliferation incubated for 72 hrs by MTT assay; assay type: functional, cell-based; details: MDA-MB-231, 72 h
[7] = target: Epidermal growth factor receptor (Homo sapiens, UniProt P00533, T790M); assay: Inhibition of EGFR T790M (unknown origin) in presence of ATP at Km concentration
Chain of Epidermal growth factor receptor (P00533 25-1210 T790M limits assumed): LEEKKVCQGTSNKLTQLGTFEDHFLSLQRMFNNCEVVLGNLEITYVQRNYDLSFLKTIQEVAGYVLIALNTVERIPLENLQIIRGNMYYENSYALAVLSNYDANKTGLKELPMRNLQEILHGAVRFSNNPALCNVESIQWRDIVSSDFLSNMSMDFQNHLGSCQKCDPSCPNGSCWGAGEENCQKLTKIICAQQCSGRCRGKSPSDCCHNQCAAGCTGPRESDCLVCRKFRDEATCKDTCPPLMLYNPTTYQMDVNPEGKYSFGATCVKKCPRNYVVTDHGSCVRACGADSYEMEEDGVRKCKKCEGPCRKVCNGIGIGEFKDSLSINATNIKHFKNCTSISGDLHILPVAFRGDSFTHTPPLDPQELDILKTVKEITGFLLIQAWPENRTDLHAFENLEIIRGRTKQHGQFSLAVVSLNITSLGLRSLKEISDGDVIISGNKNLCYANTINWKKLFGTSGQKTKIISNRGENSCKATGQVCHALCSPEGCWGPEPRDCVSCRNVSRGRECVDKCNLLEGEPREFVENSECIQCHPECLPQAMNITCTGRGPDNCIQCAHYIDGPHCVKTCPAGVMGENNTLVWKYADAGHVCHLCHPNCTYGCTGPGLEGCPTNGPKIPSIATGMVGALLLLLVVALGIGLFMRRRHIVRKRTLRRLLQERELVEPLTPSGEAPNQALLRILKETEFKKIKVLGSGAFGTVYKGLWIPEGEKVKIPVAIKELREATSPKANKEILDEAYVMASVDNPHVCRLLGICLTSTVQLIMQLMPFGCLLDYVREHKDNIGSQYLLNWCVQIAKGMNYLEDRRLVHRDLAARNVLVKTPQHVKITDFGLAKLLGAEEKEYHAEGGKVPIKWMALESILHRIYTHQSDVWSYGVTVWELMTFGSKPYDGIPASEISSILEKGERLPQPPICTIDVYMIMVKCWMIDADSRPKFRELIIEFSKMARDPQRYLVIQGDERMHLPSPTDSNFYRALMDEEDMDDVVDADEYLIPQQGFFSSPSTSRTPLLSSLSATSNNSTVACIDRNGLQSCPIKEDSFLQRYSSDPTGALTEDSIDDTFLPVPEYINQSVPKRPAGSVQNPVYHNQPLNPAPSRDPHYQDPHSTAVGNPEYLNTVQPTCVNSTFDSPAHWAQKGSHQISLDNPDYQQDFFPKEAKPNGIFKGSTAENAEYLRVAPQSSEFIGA

CWR22R = assay: cells; details: Homo sapiens, 22Rv1, 72 h
Description: Anticancer activity against human 22Rv1 cells assessed as inhibition of cell proliferation incubated for 72 hrs by MTT assay

PC-3 = assay: cells; details: Homo sapiens, PC-3, 72 h
Description: Anticancer activity against human PC-3 cells assessed as inhibition of cell proliferation incubated for 72 hrs by MTT assay

HGC-27 [8] = assay: Antitumor activity against human HGC-27 cells xenografted in female BALB/c nude mouse model assessed as reduction in tumor volume at 30 mg/kg/day, ip administered for 21 days; assay type: functional, organism-based; details: time 21.0 day
[9] = Toxicity in female BALB/c nude mouse model xenografted with human HGC-27 cells assessed as body weight loss at 30 mg/kg, ip administered for 21 days; assay type: organism-based; details: in vivo, 504 h, time 21 day
HCC827 = assay: cells; details: Homo sapiens, HCC827, 72 h
Description: Anticancer activity against human HCC827 cells assessed as inhibition of cell proliferation incubated for 72 hrs by MTT assay

HGC-27 [10] = assay: Antitumor activity against human HGC-27 cells xenografted in female BALB/c nude mouse model assessed as reduction in tumor growth at 30 mg/kg/day, ip administered for 21 days relative to control; assay type: functional; set-up: scale not given: the % may be the effect or the level left; details: time 21 day
HGC-27 [11] = assay: Antitumor activity against human HGC-27 cells xenografted in female BALB/c nude mouse model assessed as reduction in tumor weight at 30 mg/kg/day, ip administered for 21 days; assay type: functional, organism-based; details: time 21.0 day
HepG2 = assay: Anticancer activity against human HepG2 cells assessed as inhibition of cell proliferation incubated for 72 hrs by MTT assay; assay type: functional, cell-based; details: HepG2, 72 h
MGC-803 [12] = assay: Effect on mTOR expression in human MGC-803 cells at 10 to 20 uM incubated for 48 hrs by Western blot analysis; assay type: functional, cell-based; details: dose 10-20 µM
[13] = Toxicity in female BALB/c nude mouse model xenografted with human HGC-27 cells assessed as effect on lung at 30 mg/kg, ip administered for 21 days by H and E staining based analysis; assay type: organism-based; details: in vivo, 504 h, time 21 day
HONE1 cell line = assay: Anticancer activity against human HONE1 cell line assessed as inhibition of cell proliferation incubated for 72 hrs by MTT assay; assay type: functional, cell-based; details: HONE1, 72 h
Cytochrome P450 1A2 = Cytochrome P450 1A2 (Homo sapiens, UniProt P05177); assay: Inhibition of CYP1A2 in human liver microsomes using phenacetin as substrate preincubated for 5 mins followed by NADPH addition and measured after 10 mins by LC-MS/MS analysis; assay type: ADME, Microsome
Chain of Cytochrome P450 1A2 (P05177 whole entry): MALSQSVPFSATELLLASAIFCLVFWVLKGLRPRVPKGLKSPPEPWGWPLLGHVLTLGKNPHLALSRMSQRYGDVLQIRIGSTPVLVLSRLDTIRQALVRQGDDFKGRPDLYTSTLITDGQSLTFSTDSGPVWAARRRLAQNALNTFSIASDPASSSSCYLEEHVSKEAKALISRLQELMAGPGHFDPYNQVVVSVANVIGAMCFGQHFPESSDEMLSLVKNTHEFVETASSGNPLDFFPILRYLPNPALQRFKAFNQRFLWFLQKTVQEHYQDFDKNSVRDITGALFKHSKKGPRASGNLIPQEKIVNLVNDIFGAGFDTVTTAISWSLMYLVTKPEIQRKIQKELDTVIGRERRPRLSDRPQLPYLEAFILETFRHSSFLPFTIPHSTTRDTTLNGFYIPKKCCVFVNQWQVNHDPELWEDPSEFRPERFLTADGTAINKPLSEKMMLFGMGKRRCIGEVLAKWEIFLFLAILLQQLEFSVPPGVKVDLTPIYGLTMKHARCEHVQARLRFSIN

MGC-803 [14] = assay: Induction of apoptosis in LC3B knockout human MGC-803 cells assessed as increase in cleaved caspase 9 level at 20 uM by Western blot analysis; assay type: functional, cell-based
[15] = Metabolic stability in human liver microsomes assessed as intrinsic clearance at 100 uM measured upto 60 mins in presence of NADPH by LC-MS/MS analysis; assay type: ADME, Microsome; details: read-out: CLH
DU-145 = assay: cells; details: Homo sapiens, DU-145, 72 h
Description: Anticancer activity against human DU-145 cells assessed as inhibition of cell proliferation incubated for 72 hrs by MTT assay

HGC-27 [16] = assay: Induction of apoptosis in human HGC-27 cells assessed as increase in apoptotic cells at 5 to 15 uM incubated for 48 hrs by Annexin V-FITC/PI staining based flow cytometric analysis; assay type: functional, cell-based; details: dose 5-15 µM
[17] = target: Tyrosine-protein kinase JAK3 (Homo sapiens, UniProt P52333); assay: Inhibition of JAK3 (unknown origin) in presence of ATP at Km concentration
Chain of Tyrosine-protein kinase JAK3 (P52333 whole entry): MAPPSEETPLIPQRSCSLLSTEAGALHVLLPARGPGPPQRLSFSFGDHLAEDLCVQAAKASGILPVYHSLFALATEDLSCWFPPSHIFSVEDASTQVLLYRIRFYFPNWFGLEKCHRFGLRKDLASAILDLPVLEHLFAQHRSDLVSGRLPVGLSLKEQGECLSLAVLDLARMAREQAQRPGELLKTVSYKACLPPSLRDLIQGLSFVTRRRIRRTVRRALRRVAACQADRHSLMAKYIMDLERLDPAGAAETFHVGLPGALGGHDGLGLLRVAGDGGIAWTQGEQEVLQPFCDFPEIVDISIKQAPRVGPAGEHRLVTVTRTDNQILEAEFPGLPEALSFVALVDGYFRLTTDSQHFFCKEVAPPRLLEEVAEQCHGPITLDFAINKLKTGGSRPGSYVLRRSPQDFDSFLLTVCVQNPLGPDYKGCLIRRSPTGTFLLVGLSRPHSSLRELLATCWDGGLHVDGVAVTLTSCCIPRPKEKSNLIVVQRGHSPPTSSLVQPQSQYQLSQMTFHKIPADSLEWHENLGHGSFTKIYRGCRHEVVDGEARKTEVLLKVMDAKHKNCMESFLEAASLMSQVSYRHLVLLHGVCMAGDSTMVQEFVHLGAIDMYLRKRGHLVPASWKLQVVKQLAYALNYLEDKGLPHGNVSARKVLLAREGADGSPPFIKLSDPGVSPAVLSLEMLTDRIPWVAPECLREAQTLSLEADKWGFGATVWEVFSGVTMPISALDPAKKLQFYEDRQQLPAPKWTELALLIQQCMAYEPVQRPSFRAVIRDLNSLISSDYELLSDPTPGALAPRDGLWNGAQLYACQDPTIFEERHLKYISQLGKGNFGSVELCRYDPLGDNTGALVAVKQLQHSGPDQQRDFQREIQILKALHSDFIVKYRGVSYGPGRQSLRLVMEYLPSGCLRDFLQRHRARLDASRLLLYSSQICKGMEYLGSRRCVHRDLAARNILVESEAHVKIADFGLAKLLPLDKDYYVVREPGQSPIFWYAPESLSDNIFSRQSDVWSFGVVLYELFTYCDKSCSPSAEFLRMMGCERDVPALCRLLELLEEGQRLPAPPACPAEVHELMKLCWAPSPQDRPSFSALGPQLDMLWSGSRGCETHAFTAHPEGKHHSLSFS

NCI-H1975 = assay: cells; details: Homo sapiens, NCI-H1975, 72 h
Description: Anticancer activity against human NCI-H1975 cells assessed as inhibition of cell proliferation incubated for 72 hrs by MTT assay

NCI-H460 = assay: cells; details: Homo sapiens, NCI-H460, 72 h
Description: Anticancer activity against human NCI-H460 cells assessed as inhibition of cell proliferation incubated for 72 hrs by MTT assay

HGC-27 [18] = assay: Antiproliferative activity against human HGC-27 cells assessed as reduction in number of EdU-positive cells incubated for 48 hrs by confocal laser scanning microscopic analysis; assay type: functional, cell-based; details: dose 5-15 µM
HGC-27 [19] = assay: Cell cycle arrest in human HGC-27 cells assessed as accumulation of cells at G1 phase at 5 to 15 uM incubated for 48 hrs by flow cytometric analysis; assay type: functional, cell-based; details: dose 5-15 µM
[20] = Oral bioavailability in Sprague-Dawley rat at 5 mg/kg measured after 24 hrs by LC-MS/MS analysis; assay type: ADME, organism-based; details: in vivo
HGC-27 [21] = assay: Inhibition of AKT-mTOR signaling in human HGC-27 cells assessed as decrease in phosphorylated AKT expression at 5 to 15 uM incubated for 48 hrs by Western blot analysis; assay type: cell-based; details: dose 5-15 µM
MGC-803 [22] = assay: Induction of autophagy in human MGC-803 cells assessed as increase in LC3B protein expression incubated for 48 hrs by Western blot analysis; assay type: functional, cell-based; details: dose 10-20 µM
Cytochrome P450 2C19 = Cytochrome P450 2C19 (Homo sapiens, UniProt P33261); assay: Inhibition of CYP2C19 in human liver microsomes using omeprazole as substrate preincubated for 5 mins followed by NADPH addition and measured after 10 mins by LC-MS/MS analysis; assay type: ADME, Microsome
Chain of Cytochrome P450 2C19 (P33261 whole entry): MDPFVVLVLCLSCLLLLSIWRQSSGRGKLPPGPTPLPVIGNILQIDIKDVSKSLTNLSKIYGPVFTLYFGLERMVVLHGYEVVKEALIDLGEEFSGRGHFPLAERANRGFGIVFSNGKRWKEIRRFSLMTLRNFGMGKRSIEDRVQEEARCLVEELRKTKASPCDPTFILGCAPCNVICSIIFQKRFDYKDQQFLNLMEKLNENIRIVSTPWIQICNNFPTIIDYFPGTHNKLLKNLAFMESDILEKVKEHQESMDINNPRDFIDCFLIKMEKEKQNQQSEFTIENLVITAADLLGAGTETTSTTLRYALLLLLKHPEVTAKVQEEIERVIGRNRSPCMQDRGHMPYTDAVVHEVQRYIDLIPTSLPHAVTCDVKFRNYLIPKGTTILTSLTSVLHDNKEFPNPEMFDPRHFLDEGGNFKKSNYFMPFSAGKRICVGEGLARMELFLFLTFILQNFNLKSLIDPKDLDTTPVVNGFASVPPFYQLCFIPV

HGC-27 [23] = assay: Induction of autophagy in human HGC-27 cells assessed as decrease in p62 protein expression incubated for 48 hrs by Western blot analysis; assay type: functional, cell-based; details: dose 5-15 µM
MGC-803 [24] = assay: Inhibition of AKT-mTOR signaling in human […] cells assessed as decrease in phosphorylated AKT expression at 10 to 20 uM incubated for 48 hrs by Western blot analysis; assay type: cell-based; details: dose 10-20 µM
HGC-27 [25] = assay: Inhibition of AKT-mTOR signaling in human HGC-27 cells assessed as decrease in phosphorylated mTOR expression at 5 to 15 uM incubated for 48 hrs by Western blot analysis; assay type: cell-based; details: dose 5-15 µM
MGC-803 [26] = assay: Inhibition of AKT-mTOR signaling in human […] cells assessed as decrease in phosphorylated mTOR expression at 10 to 20 uM incubated for 48 hrs by Western blot analysis; assay type: cell-based; details: dose 10-20 µM

SMILES: C=CS(=O)(=O)N1CCC[C@@H](Nc2nc(N)nc(Nc3cccc(Oc4ccccc4)c3)n2)C1
- IC50 (A549): 29.4 µM
- Activity (HGC-27 [1]): Dose-dependent-effect
- Activity (MGC-803 [2]): Dose-dependent-effect
- Activity (MGC-803 [3]): Active
- IC50 (PC-9): 23.3 µM
- IC50 (MGC-803 [4]): 14.4 µM
- Activity (MGC-803 [5]): Time-dependent-effect
- Activity (MGC-803 [6]): Active
- IC50 (MDA-MB-231): 19.7 µM
- IC50 [7]: 0.177 µM
- IC50 (CWR22R): 13.4 µM
- IC50 (PC-3): 17.2 µM
- Activity (HGC-27 [8]): Active
- Activity [9]: Non-toxic
- IC50 (HCC827): 5.7 µM
- Activity (HGC-27 [10]): 49.93%
- Activity (HGC-27 [11]): Active
- IC50 (HepG2): > 32 µM
- Activity (MGC-803 [12]): inactive
- Activity [13]: Non-toxic
- IC50 (HONE1 cell line): 15.7 µM
- IC50 (Cytochrome P450 1A2): > 100 µM
- Activity (MGC-803 [14]): Active
- microsomal CLint at 100 µM [15]: 214 µL/min/mg
- IC50 (DU-145): 10.4 µM
- Activity (HGC-27 [16]): Active
- IC50 [17]: 0.437 µM
- IC50 (NCI-H1975): 5 µM
- IC50 (NCI-H460): 16.7 µM
- Activity (HGC-27 [18]): Dose-dependent-effect
- Activity (HGC-27 [19]): Active
- bioavailability [20]: 6.6%
- inhibition (HGC-27 [21]): Active
- Activity (MGC-803 [22]): Dose-dependent-effect
- IC50 (Cytochrome P450 2C19): > 100 µM
- Activity (HGC-27 [23]): Dose-dependent-effect
- inhibition (MGC-803 [24]): Active
- inhibition (HGC-27 [25]): Active
- inhibition (MGC-803 [26]): Active
